PMC3234597, “Two Panels of Steroid Receptor Luciferase Reporter Cell Lines for Compound Profiling” (Combinatorial Chemistry & High Throughput Screening, 2011)

Assays:
Assay type in all cases: cell-based
human ERα (full-length) = molecular target: T1, human ERα (full-length) (Homo sapiens, UniProt P03372, G400V); assay: U2OS-ERα/3xERE luciferase reporter cell line (full-length receptor); conditions: for luciferase activity in ERα reporter cell lines: even at 10 μM concentration
T1 sequence (P03372 1-595 G400V): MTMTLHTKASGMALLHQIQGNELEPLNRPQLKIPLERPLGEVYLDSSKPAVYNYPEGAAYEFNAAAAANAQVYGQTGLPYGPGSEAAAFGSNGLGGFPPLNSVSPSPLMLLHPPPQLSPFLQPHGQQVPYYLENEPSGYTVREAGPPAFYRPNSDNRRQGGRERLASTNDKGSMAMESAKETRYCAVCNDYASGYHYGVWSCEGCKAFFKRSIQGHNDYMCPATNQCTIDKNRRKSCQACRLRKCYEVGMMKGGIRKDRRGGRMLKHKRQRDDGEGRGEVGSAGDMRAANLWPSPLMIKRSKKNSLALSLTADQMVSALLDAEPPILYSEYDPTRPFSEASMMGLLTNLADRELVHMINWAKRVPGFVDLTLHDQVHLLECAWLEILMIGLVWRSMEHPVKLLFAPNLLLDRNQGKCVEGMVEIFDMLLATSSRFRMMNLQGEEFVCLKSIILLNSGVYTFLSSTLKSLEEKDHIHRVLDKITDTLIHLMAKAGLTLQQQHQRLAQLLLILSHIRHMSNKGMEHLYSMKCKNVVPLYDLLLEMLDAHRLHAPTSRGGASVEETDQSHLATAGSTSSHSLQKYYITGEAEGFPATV

human AR (full-length) = molecular target: T2, human AR (full-length) (Homo sapiens, UniProt P10275); assay: U2OS-AR/MMTV luciferase reporter cell line (full-length receptor); conditions: for Log EC50: agonist mode, 20 h, log10 of molar EC50, mean ± SEM; for Log EC50 / Log IC50: AR/MMTV; for Log IC50: antagonist mode, in the presence of 0.05 nM dihydrotestosterone, log10 of molar IC50, mean ± SEM
T2 construct: expression vectors encoding full-length steroid receptors: pcDNA3-hAR and pcDNA3-hGR; host or cells: U2OS
T2 sequence (P10275 1-920): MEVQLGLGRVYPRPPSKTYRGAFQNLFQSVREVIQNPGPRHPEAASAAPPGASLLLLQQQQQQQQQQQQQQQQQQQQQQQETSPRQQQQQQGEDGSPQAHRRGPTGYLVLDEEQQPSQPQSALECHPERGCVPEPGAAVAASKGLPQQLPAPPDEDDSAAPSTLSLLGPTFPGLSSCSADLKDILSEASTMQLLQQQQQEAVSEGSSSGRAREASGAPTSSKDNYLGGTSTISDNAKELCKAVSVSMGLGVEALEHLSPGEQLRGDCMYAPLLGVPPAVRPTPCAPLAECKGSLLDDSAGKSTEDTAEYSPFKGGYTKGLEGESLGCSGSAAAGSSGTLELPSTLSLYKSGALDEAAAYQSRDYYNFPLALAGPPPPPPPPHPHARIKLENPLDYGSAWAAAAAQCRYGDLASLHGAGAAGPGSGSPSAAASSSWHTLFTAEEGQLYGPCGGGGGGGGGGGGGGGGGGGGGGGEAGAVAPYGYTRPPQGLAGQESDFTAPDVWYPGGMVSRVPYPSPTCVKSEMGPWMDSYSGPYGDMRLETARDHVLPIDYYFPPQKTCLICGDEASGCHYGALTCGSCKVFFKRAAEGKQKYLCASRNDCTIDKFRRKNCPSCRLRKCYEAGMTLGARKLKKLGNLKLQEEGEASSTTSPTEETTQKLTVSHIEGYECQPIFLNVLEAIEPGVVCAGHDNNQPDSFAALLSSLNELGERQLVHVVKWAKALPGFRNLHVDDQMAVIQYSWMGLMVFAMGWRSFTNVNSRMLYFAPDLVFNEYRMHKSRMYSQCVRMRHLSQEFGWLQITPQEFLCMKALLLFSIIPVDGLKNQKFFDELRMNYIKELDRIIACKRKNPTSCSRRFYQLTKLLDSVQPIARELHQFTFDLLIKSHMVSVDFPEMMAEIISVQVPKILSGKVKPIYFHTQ

[1] = molecular target: T3, ERα^G420C-LBD fused to Gal4-DBD (Homo sapiens, UniProt P03372, G420C); assay: U2OS-ERα^G420C-LBD/9xGal4UAS luciferase reporter cell line
T3 construct: expressed in transfected cells; host or cells: U2OS
T3 sequence (P03372 311-547 G420C limits assumed): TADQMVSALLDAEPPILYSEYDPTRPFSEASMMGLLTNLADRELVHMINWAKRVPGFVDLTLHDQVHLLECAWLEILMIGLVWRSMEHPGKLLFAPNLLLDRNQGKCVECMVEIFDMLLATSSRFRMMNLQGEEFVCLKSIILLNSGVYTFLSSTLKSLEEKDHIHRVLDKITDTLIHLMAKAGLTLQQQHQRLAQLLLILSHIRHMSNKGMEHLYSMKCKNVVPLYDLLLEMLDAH

[2] = molecular target: T4, ERβ-LBD fused to Gal4-DBD (Homo sapiens, UniProt Q92731); assay: U2OS-ERβ-LBD/9xGal4UAS luciferase reporter cell line; conditions: for EC50: read-out: Log EC50 (converted)
T4 construct: region comprising ERβ-LBD and a piece of the hinge region; expressed in transfected cells; host or cells: U2OS

human ERβ (full-length) = molecular target: T5, human ERβ (full-length) (Homo sapiens, UniProt Q92731); assay: U2OS-ERβ/3xERE luciferase reporter cell line (full-length receptor); conditions: for EC50: read-out: Log EC50 (converted)
T5 construct: expression vectors encoding full-length steroid receptors: pcDNA3-hERα and pcDNA3-ERβ; expressed in transfected cells; host or cells: U2OS

[3] = molecular target: T6, AR-LBD fused to Gal4-DBD (co-expressed with full-length AR) (Homo sapiens, UniProt P10275); assay: U2OS-AR-LBD/9xGal4UAS luciferase reporter cell line; conditions: for Log EC50: agonist mode, AR-LBD/9xGal4UAS, 20 h, log10 of molar EC50, mean ± SEM
T6 construct: the following primers were used for the amplification of the LBD region; expressed in transfected cells; host or cells: U2OS
T6 sequence (P10275 669-900 limits assumed): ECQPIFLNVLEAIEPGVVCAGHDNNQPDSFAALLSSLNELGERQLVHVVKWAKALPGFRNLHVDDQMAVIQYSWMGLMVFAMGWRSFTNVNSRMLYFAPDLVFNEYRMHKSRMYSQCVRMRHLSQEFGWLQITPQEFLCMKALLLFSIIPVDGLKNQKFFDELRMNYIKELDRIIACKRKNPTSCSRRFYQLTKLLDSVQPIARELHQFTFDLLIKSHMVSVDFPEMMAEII

T5 sequence (Q92731 whole entry): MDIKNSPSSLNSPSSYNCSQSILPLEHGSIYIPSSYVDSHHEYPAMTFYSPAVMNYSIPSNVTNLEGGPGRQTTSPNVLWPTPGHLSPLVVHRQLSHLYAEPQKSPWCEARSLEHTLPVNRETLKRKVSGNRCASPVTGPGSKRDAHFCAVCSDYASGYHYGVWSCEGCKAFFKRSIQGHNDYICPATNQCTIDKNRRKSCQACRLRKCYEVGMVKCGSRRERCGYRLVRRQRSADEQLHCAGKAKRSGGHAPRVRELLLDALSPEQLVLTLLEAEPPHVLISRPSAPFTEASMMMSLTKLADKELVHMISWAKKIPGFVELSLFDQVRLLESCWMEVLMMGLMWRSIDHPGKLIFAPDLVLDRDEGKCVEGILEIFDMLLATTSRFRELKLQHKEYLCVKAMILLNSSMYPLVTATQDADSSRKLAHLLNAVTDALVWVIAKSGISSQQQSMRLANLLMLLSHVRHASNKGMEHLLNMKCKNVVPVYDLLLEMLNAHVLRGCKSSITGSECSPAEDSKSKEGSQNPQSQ
T4 sequence (Q92731 264-498 limits assumed): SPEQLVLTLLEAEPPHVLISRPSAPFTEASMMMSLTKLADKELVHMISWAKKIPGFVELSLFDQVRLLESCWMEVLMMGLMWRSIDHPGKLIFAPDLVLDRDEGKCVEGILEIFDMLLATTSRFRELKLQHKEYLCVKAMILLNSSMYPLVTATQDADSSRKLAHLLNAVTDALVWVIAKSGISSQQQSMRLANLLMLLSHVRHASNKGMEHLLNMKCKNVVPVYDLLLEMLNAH

Structure (SMILES): CCCc1c(-c2ccc(O)cc2)nn(-c2ccc(O)cc2)c1-c1ccc(O)cc1 [PPT, propyl pyrazole triol]
- EC50 (human ERα (full-length)): 0.0017 µM
- EC50 (human AR (full-length)): > 10 µM
- EC50 [1]: 0.0115 µM
- EC50 [2]: > 10 µM
- EC50 (human ERβ (full-length)): > 10 µM
- EC50 [3]: > 10 µM

Structure (SMILES): C[C@]12CC[C@@H]3c4ccc(O)cc4C[C@@H](CCCCCCCCC[S+]([O-])CCCC(F)(F)C(F)(F)F)[C@H]3[C@@H]1CC[C@@H]2O (some centres unmarked) [ICI 182.780]
- Log EC50 (human AR (full-length)): > -5.00 M
- Log IC50 (human AR (full-length)): > -5.00 M
- Log IC50 [3]: > -5.00 M
- Log EC50 [3]: > -5.00 M

Structure (SMILES): C#C[C@]1(O)CC[C@H]2[C@@H]3CCC4=Cc5oncc5C[C@]4(C)[C@H]3CC[C@@]21C [Danazol, danazol]
- EC50 (human ERα (full-length)): 4.37 µM
- EC50 [1]: > 10 µM
- EC50 [2]: > 10 µM
- EC50 (human ERβ (full-length)): > 10 µM

Structure (SMILES): C[C@H]1C[C@H]2[C@@H]3CCC4=CC(=O)C=C[C@]4(C)[C@@]3(Cl)[C@@H](O)C[C@]2(C)[C@@]1(O)C(=O)CO [Beclomethasone, beclomethasone]
- luciferase activity in ERα reporter cell lines (human ERα (full-length)): did not find any sign of luciferase activity
- Log EC50 (human ERα (full-length); agonist mode, ERα/3xERE, 20 h, value is log10 of molar EC50, mean ± SEM): > -5.00 M
- Log IC50 (human ERα (full-length); antagonist mode, ERα/3xERE, in the presence of 1 nM E2, log10 of molar IC50, mean ± SEM): > -5.00 M
- Log EC50 ([1]; agonist mode, ERα^G420C-LBD/9xGal4UAS, 20 h, log10 of molar EC50, mean ± SEM): > -5.00 M
- Log IC50 ([1]; antagonist mode, ERα^G420C-LBD/9xGal4UAS, in the presence of 20 nM E2, log10 of molar IC50, mean ± SEM): > -5.00 M

Structure (SMILES): C[C@]12C[C@H](O)[C@H]3[C@@H](CCC4=CC(=O)CC[C@@]43C)[C@@H]1CC[C@@H]2C(=O)CO [Corticosterone, corticosterone]
- EC50 (human ERα (full-length)): > 10 µM
- EC50 [1]: > 10 µM
- EC50 [2]: > 10 µM
- EC50 (human ERβ (full-length)): > 10 µM

Structure (SMILES): C[C@]12CCC(=O)C=C1CC[C@@H]1[C@@H]2[C@@H](O)C[C@]2(C=O)[C@@H](C(=O)CO)CC[C@@H]12 [Aldosterone, aldosterone]
- EC50 (human ERα (full-length)): > 10 µM
- EC50 (human AR (full-length)): > 10 µM
- EC50 [1]: > 10 µM
- EC50 [2]: > 10 µM
- EC50 (human ERβ (full-length)): > 10 µM
- EC50 [3]: > 10 µM

Structure (SMILES): CC[C@@H]1Cc2cc(O)ccc2C2=C1c1ccc(O)cc1C[C@H]2CC (relative stereo) [R.R-THC, (R,R)-cis-diethyltetrahydro-2,8-chrysenediol]
- Log EC50 (human AR (full-length)): > -5.00 M
- Log IC50 (human AR (full-length)): -5.22 ± 1.26 M
- Log EC50 ([2]; agonist mode, ERβ-LBD/9xGal4UAS, 20 h, log10 of molar EC50, mean ± SEM): > -5.00 M
- Log IC50 ([2]; antagonist mode, ERβ-LBD/9xGal4UAS, in the presence of 5 nM E2, log10 of molar IC50, mean ± SEM): -7.39 ± 0.15 M
- Log EC50 (human ERβ (full-length); agonist mode, ERβ/3xERE, 20 h, log10 of molar EC50, mean ± SEM): > -5.00 M
- Log IC50 (human ERβ (full-length); antagonist mode, ERβ/3xERE, in the presence of 1 nM E2, log10 of molar IC50, mean ± SEM): -7.30 ± 0.14 M
- Log IC50 [3]: > -5.500 M
- Log EC50 [3]: > -5.00 M

Structure (SMILES): CCC(=O)[C@@]1(C)CC[C@H]2[C@@H]3CCC4=CC(=O)CCC4=C3CC[C@@]21C [Promegestone (R5020), promegestone]
- EC50 (human ERα (full-length)): > 10 µM
- EC50 (human AR (full-length)): > 10 µM
- IC50 (human AR (full-length)): 12.6 nM
- EC50 [1]: > 10 µM
- EC50 [2]: > 10 µM
- EC50 (human ERβ (full-length)): > 10 µM
- EC50 [3]: > 10 µM
- IC50 [3]: 407 nM

Structure (SMILES): C[C@]12C=CC(=O)C=C1CC[C@H]1[C@@H]3C[C@@H](O)[C@](O)(C(=O)CO)[C@@]3(C)C[C@H](O)[C@@]12F [Triamcinolone, triamcinolone]
- EC50 (human ERα (full-length)): > 10 µM
- luciferase activity in ERα reporter cell lines (human ERα (full-length)): did not find any sign of luciferase activity
- EC50 [1]: > 10 µM

Structure (SMILES): O=c1c(-c2ccc(O)cc2)coc2cc(O)cc(O)c12 [Genistein, genistein]
- EC50 (human AR (full-length)): > 10 µM
- EC50 [3]: > 10 µM
